In PubChem BioAssay AID488890 (Southern Research Specialized Biocontainment Screening …, 2010):
Inconclusive results are not listed. The source made the active and inactive calls. How the calls were made is not given here.

These molecules were tested on Mycobacterium tuberculosis non-replicating, growth inhibition (assay: growth inhibition of non-replicating M. tuberculosis (AID 488890)).

Row | Structure (SMILES) | IC50
1 | CCc1ccc(NC(=O)C(=O)NNC(=O)COc2cccc(OC)c2)cc1 | 2.49 µM
2 | O=C(C#Cc1ccccc1)c1ccco1 | 0.43 µM
3 | Cc1ccc(CC(=O)N2CCN(c3ccc([N+](=O)[O-])cc3)CC2)cc1 | 16 µM (inactive)
4 | CCOC(=O)CCCNC(=O)COC(=O)c1cc(Br)c(Br)s1 | 9.34 µM
5 | Cc1ccc(-c2noc(CCCC(=O)Nc3cccnc3)n2)cc1 | 7.61 µM
6 | CCCCSc1nnc(-c2cc(Br)ccc2N)c(=O)[nH]1 | 12.6 µM (inactive)
7 | O=c1cc(-c2ccncc2)oc2c1ccc1ccccc12 | 22.3 µM (inactive)
8 | O=C(N/N=C\c1ccc([N+](=O)[O-])o1)C1COc2ccccc2O1 (stereo unspecified) | 2.27 µM
9 | CCOC(=O)COc1ccc2ccccc2c1/C=C/[N+](=O)[O-] | 2.32 µM
10 | OCC#CCSc1nnc(-c2ccc(Br)cc2)o1 | 0.33 µM
11 | Nc1scc(-c2ccncc2)c1Cl | 14 µM (inactive)
12 | Cc1nnc(NC(=O)c2ccc3ccccc3c2)o1 | 1.55 µM
13 | CCc1ccc(C2=C/C(=C/c3cccnc3)C(=O)O2)cc1 | 21.2 µM (inactive)
14 | O=C(N/N=C/C=C/c1ccccc1)c1ccncc1 | 0.92 µM
15 | O=C(N/N=C/C=C/c1cccc([N+](=O)[O-])c1)c1ccncc1 | 24.8 µM (inactive)
16 | Cc1cccc(N2CCN(C(=O)Cn3sc4nc(C)cc(C)c4c3=O)CC2C)c1 (stereo unspecified) | 2.7 µM
17 | Cc1ccn2c(NC3CCCC3)c(-c3ccccn3)nc2c1 | 12 µM (inactive)
18 | O=C(N/N=C/c1cccc(F)c1)c1c(O)c2ccccc2[nH]c1=O | 3.17 µM
19 | CCCOC(=O)c1ccc(NC(=O)c2ccccc2OC)cc1 | 18.1 µM (inactive)
20 | Cc1ccc(C(=O)CCNc2ccc(Br)cc2)o1 | 1.84 µM
21 | O=C(OCC#CCSc1nnc(-c2ccccc2)o1)c1ccco1 | 1.44 µM
22 | O=C(N/N=C/C(Br)=C/c1ccccc1)c1ccncc1 | 3.89 µM
23 | COc1cc(OC)nc(-n2ncc(Br)c(Br)c2=O)n1 | 6.07 µM
24 | Cc1c(C(=O)N(C)C)sc2nc(-c3ccccn3)[nH]c(=O)c12 | 32.7 µM (inactive)

Row | Structure (SMILES) | IC50
25 | CCN(CC)Cc1ccc(NC(=O)c2sc3cc(Cl)ccc3c2Cl)cc1 | 11.2 µM (inactive)
26 | COC(=O)CC(=O)N1CCN(c2ccc(Cl)c(Cl)c2)CC1 | 5.82 µM
27 | Cc1cccc(Cn2ccc(NC(=O)c3ccc4c(c3)OCO4)n2)c1 | 4.51 µM
28 | Cc1ccn2c(Nc3ccccc3)c(-c3ccccn3)nc2c1 | 10.4 µM (inactive)
29 | Oc1ccc(Br)cc1-c1ccn[nH]1 | 1.71 µM
30 | COc1cc2c(cc1OC)CN(CCC(=O)c1ccc(Br)cc1)CC2 | 6.03 µM
31 | O=C1C=CC(O)(c2cc(=O)c3c(O)cc(O)cc3o2)C=C1 | 2.61 µM
32 | CCOC(=O)c1c(NC(C)=O)sc2c(OCC(O)CNC(C)(C)C)c(Br)ccc12 (stereo unspecified) | 4.44 µM
33 | O=C(N/N=C/c1ccc(O)cc1)c1cccc(C(F)(F)F)c1 | 16 µM (inactive)
34 | Cc1ccccc1OCC(O)Cn1c(=N)n(Cc2ccccc2)c2ccccc21 (stereo unspecified) | 7.63 µM
35 | CC(=O)c1ccc(NC(=O)C(Cc2ccccc2)n2cccc2)cc1 (stereo unspecified) | 12.5 µM (inactive)
36 | COc1ccc(OC(=O)C2CC(=O)N(c3ccc(C)cc3)C2)cc1 (stereo unspecified) | 9.65 µM
37 | CC(/C=C/c1ccccc1)=N\NC(=O)c1ccc2c(c1)OCCO2 | 8.02 µM
38 | CCCCN(CC)S(=O)(=O)c1ccc(C(=O)Nc2nnc(-c3cccs3)o2)cc1 | 11.3 µM (inactive)
39 | CCOC(=O)c1cc(-c2cccc([N+](=O)[O-])c2)on1 | 0.64 µM
40 | CC(C)N1CCc2c(sc(NC(=O)CCS(=O)(=O)c3ccccc3)c2C#N)C1 | 39.6 µM (inactive)
41 | Cc1onc(-c2ccccc2)c1C(=O)O/N=C(\N)c1ccc([N+](=O)[O-])o1 | 25.8 µM (inactive)
42 | O=C(Nc1cccnc1)c1cc(Cl)ccc1Cl | 18.8 µM (inactive)
43 | O=C(Nc1nnc(C2=COCCO2)o1)c1ccc(Cc2ccccc2)cc1 | 30.6 µM (inactive)
44 | COc1ccc(N=N/C(=C\O)C(=O)c2ccco2)cc1 | 21.5 µM (inactive)
45 | Cc1ccc(CCC(=O)Nc2ccccc2F)s1 | 26.2 µM (inactive)
46 | C/C(=N\Nc1nc2ccccc2[nH]1)c1ccc(N2CCOCC2)cc1 | 10.5 µM (inactive)
47 | CC(C)CNc1nc(=S)nc(N(C)C)[nH]1 | 11.5 µM (inactive)
48 | S=C1SCN(Cc2cccnc2)CN1Cc1ccccc1 | 14.9 µM (inactive)

Row | Structure (SMILES) | IC50
49 | Cc1cc(C(=O)NNc2cc(Cl)ccc2Cl)no1 | 18.7 µM (inactive)
50 | O=C(COC(=O)c1ccccc1)NCc1cccs1 | 37.4 µM (inactive)
51 | COc1ccc(NC(=O)C2COc3ccccc3O2)cc1 (stereo unspecified) | 4.43 µM
52 | COC(=O)c1c(NC(=O)c2ccc([N+](=O)[O-])o2)sc2c1CCN(C(C)C)C2 | 0.15 µM
53 | CC(=O)Nc1nc2ccccc2n1CCOc1ccccc1Cl | 5.37 µM
54 | Cc1nnc(N/N=C/c2ccc(-c3ccccc3F)o2)n1N | 10.6 µM (inactive)
55 | CCCC(NCC(O)COc1ccc(-c2ccccc2)cc1)c1ccccc1 (stereo unspecified) | 10.7 µM (inactive)
56 | CCC(C)(C)c1ccc(OCC(=O)Nc2ccncc2)cc1 | 4.38 µM
57 | CCOc1ccc(/C=N/OCC(=O)Nc2ccc3c(c2)OCO3)cc1 | 5.11 µM
58 | CCCOc1ccc(N2CC(C(=O)Nc3ccccc3F)CC2=O)cc1 (stereo unspecified) | 15.8 µM (inactive)
59 | CCOC(=O)CN1NC2(CCCC(C)C2)NC1=S (stereo unspecified) | 11.9 µM (inactive)
60 | Cc1cc(C)nc(Sc2ncnc(N)c2[N+](=O)[O-])n1 | 10.7 µM (inactive)
61 | COc1cc(OC)cc(-c2nc3ccccc3c(=O)o2)c1 | 2.33 µM
62 | COc1ccc2oc(=O)c(/C(C)=N/NC(=O)c3ccncc3)cc2c1 | 0.84 µM
63 | O=C(NCCc1ccccc1)c1nc(-c2cccs2)no1 | 2.21 µM
64 | CC(C)OC(=O)C(C)Oc1ccc(C(=O)NCCc2ccccc2)cc1 (stereo unspecified) | 11.6 µM (inactive)
65 | O=C(Nc1cccc2ccccc12)c1ccc([N+](=O)[O-])o1 | 2.11 µM
66 | COc1cc(CNCCc2c[nH]c3ccccc23)ccc1OCc1ccc(F)cc1 | 11.5 µM (inactive)
67 | Clc1c(OCCCn2ccnc2)ccc2ccccc12 | 9.74 µM
68 | CCc1ccccc1NC(=O)C1COc2ccccc2O1 (stereo unspecified) | 19.8 µM (inactive)
69 | N=C1S/C(=C\c2ccco2)C(=O)N1c1nccs1 | 3.04 µM
70 | O=C(Nc1nnc(-c2ccc(Br)cc2)o1)C1=COCCO1 | 24.6 µM (inactive)
71 | O=C(CCc1ccccc1F)N1CCN(c2ccccc2)CC1 | 2.08 µM
72 | COc1ccc(S(=O)(=O)N(C(C)=O)c2ccc(OC(C)=O)c3ccccc23)cc1[N+](=O)[O-] | 13.6 µM (inactive)

Row | Structure (SMILES) | IC50
73 | O=C(Nc1ncc(Cc2ccccc2Cl)s1)C1=NCCN1 | 4.18 µM
74 | Cc1cc(OCCCCn2ccnc2)cc(C)c1Cl | 4.68 µM
75 | CCOC(=O)C1CCN(c2nc3cc(OC)ccc3cc2C#N)CC1 | 11.1 µM (inactive)
76 | CCOC(=O)CN(C#N)c1nc(N(C)C)nc(N(C)C)n1 | 8.42 µM
77 | Cc1cccc(NC(=O)c2cc3ccccc3oc2=O)c1 | 10.5 µM (inactive)
78 | Cc1cc(NC(=O)COC(=O)COc2ccc(C(=O)c3ccccc3)cc2)no1 | 18.3 µM (inactive)
79 | Cc1ccc(C(=O)O/N=C(\N)c2cccc([N+](=O)[O-])c2)cc1 | 7 µM
80 | O=Cc1coc2ccc3ccccc3c2c1=O | 16.3 µM (inactive)
81 | COc1cccc2c1C(CO)N1C(C#N)C3CC(C(=O)O)C(C1C2)N3C (stereo unspecified) | 2.09 µM
82 | CCCCCCCCCCn1ccc(=N)cc1 | 14.5 µM (inactive)
83 | Cc1cc(Cl)ccc1OCCCC(=O)NO | 14.6 µM (inactive)
84 | CCOC(=O)c1c(C)n(C)c2ccc(OC(C)C(=O)OC)cc12 (stereo unspecified) | 14.2 µM (inactive)
85 | CCS(=O)(=O)c1ncc(Cl)c(C(=O)Nc2ccc(S(=O)(=O)N3CCC(C)CC3)cc2)n1 | 9.7 µM
86 | O=C(C/C=N\OCc1ccc([N+](=O)[O-])cc1)Nc1ccc(Br)cc1 | 10.9 µM (inactive)
87 | Cc1ccc(N=Nc2c(C)[nH]n(C(N)=S)c2=O)cc1 | 2.35 µM
88 | CCCCCCOC(=O)C(C#N)c1nc2ccccc2nc1N1CCN(CC)CC1 (stereo unspecified) | 13.9 µM (inactive)
89 | O=C(NCc1cccs1)c1ccc([N+](=O)[O-])cc1 | 2.84 µM
90 | CN1CCN(c2c(F)cc3c(=O)c(C(=O)O)cn4c3c2SCC4)CC1 | 16.8 µM (inactive)
91 | CCCCCCNC(=O)c1ccc(Br)o1 | < 0.1 µM
92 | COc1ccc(-c2nnn(CC(=O)OC3CCCCC3)n2)cc1OC | 7.74 µM
93 | CCc1ccc(N2NC(=O)/C(=C/C=C/c3ccco3)C2=O)cc1 | 3.65 µM
94 | O=C(CCNc1cccc(F)c1)c1cccc([N+](=O)[O-])c1 | 5.37 µM
95 | O=C1/C(=C/c2cccs2)COc2ccccc21 | 13.9 µM (inactive)
96 | CC(=O)Oc1ccc(N2C(=O)c3cccc4c([N+](=O)[O-])ccc(c34)C2=O)cc1 | 0.37 µM

Row | Structure (SMILES) | IC50
97 | CNCc1ccccc1Sc1cc(O)ccc1O | 5.19 µM
98 | CC(=O)N1CCC(=NNC(=O)c2cccs2)CC1 | 20.7 µM (inactive)
99 | Cc1ccc(NC(=O)C2COc3ccccc3O2)nc1 (stereo unspecified) | 6.26 µM
100 | O=[N+]([O-])c1ccc(S(=O)(=O)c2cccc(C(F)(F)F)c2)nc1 | < 0.1 µM
101 | O=C(OCC(=O)C12CC3CC(CC(C3)C1)C2)c1ccccn1 | 9.38 µM
102 | CC1Cc2cc(/C=C3/SC(=S)NC3=O)ccc2O1 (stereo unspecified) | 3.01 µM
103 | CCOc1cc(-c2sc(Nc3cc(C)ccc3OC)n[n+]2-c2ccccc2)ccc1OC | 4.29 µM
104 | Cc1cccc2cc(C#N)c(NCCCn3ccnc3)nc12 | 23.3 µM (inactive)
105 | O=C(N=Nc1c(O)[nH]c2ccc(Br)cc12)c1ccccc1-n1cccc1 | 5.94 µM
106 | Cc1ccc(C(=O)NNC(=S)NC(=O)c2ccc(Cl)cc2)cc1 | 4.01 µM
107 | O=C(O)c1ccccc1C(=O)NNc1ccc(F)cc1 | 12.4 µM (inactive)
108 | Cc1cc(Cl)ccc1OC(C)C(=O)Nc1ccc([N+](=O)[O-])cn1 (stereo unspecified) | 23.3 µM (inactive)
109 | CCOC(=O)CNc1ccc(C(=O)OCC)cc1[N+](=O)[O-] | 11 µM (inactive)
110 | O=c1[nH]c2ccccc2c2oc(CCl)nc12 | 4.22 µM
111 | C=Cc1cccc(NC(=O)COc2ccccc2)c1 | 5.75 µM
112 | N#CC(C(=O)NCc1ccco1)c1nc2ccccc2nc1N1CCOCC1 (stereo unspecified) | 15.9 µM (inactive)
113 | CCCCn1nnc(NC(=O)COc2ccc(Cl)c(C)c2)n1 | 7.56 µM
114 | CCc1ccc(OCCCC(=O)NCc2ccco2)cc1 | 5.18 µM
115 | Cc1cccc(NC(=O)c2ccc(OC3CSC3)cc2)c1 | 28.7 µM (inactive)
116 | Cc1occc1-c1nnc(-c2cc([N+](=O)[O-])cc([N+](=O)[O-])c2)o1 | 1.56 µM
